Results: ChEMBL document CHEMBL1128138, “The synthesis, and dopamine D2 and serotonin 5-HT3 receptor affinity of 3-aza analogues (pyridyl) of 4-amino-5-chloro-2-methoxybenzamides” (Bioorg Med Chem Lett, 1995)

Columns and labels:
Rattus norvegicus = test: Ability to inhibit the Bezold-Jarisch reflex by i.v. administration; type: functional; details: iv, read-out: ID50 (the source's name)
D(2) dopamine receptor = D(2) dopamine receptor (Homo sapiens, UniProt P14416); test: Binding affinity towards dopamine D2 receptor
Chain of D(2) dopamine receptor (P14416 whole entry): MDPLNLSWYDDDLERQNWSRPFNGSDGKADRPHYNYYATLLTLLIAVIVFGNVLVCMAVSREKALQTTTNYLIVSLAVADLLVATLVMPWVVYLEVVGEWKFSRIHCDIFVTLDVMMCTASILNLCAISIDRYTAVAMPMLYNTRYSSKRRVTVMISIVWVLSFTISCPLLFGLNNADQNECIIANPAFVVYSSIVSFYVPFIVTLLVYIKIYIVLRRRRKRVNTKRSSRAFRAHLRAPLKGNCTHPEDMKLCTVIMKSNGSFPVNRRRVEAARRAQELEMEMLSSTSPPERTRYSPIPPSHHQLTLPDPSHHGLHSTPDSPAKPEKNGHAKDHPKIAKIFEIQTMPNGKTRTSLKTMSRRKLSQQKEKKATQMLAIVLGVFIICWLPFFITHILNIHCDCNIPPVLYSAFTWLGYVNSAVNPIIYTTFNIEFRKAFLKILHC

Compound | ED50 (Rattus norvegicus) [µg/kg] | Ki (D(2) dopamine receptor) [nM]
COc1cc(N)c(Cl)cc1C(=O)NC1CC2CCCC(C1)N2C (centres undefined) | 0.4 | –
COc1nc(N)c(Cl)cc1C(=O)NC1CC2CCCC(C1)N2Cc1ccccc1 (centres undefined) | – | 1.26
COc1cc(N)c(Cl)cc1C(=O)NC1CC2CCC(C1)N2C (centres undefined) | 0.8 | –
COc1cc(N)c(Cl)cc1C(=O)NC1CC2CCCC(C1)N2Cc1ccccc1 (centres undefined) | – | 0.251
